Measured values published in patent EP1056700B1, “MEDICINAL USES OF PHENYLALKANOLS AND DERIVATES” (ZingoTX Pty Ltd, priority 1997, dated 1999).

What was measured:
Lipoxygenase (LP) = target: T1, Lipoxygenase (LP) (Rattus norvegicus, UniProt P12527); experiment: Lipoxygenase assay with cell-free enzyme from RBL 2H3 cells (EIA); assay type: biochemical; conditions: final concentration of 10 µM
T1 construct: cell-free enzyme (Wong et al, 1991) prepared from rat basophilic leukemia (RBL) 2H3 cell lines; endogenous in cells; host or cells: RBL 2H3 (rat basophilic leukemia), 15,000 g supernatant of cells disrupted by nitrogen cavitation
T1 sequence (P12527 1-673): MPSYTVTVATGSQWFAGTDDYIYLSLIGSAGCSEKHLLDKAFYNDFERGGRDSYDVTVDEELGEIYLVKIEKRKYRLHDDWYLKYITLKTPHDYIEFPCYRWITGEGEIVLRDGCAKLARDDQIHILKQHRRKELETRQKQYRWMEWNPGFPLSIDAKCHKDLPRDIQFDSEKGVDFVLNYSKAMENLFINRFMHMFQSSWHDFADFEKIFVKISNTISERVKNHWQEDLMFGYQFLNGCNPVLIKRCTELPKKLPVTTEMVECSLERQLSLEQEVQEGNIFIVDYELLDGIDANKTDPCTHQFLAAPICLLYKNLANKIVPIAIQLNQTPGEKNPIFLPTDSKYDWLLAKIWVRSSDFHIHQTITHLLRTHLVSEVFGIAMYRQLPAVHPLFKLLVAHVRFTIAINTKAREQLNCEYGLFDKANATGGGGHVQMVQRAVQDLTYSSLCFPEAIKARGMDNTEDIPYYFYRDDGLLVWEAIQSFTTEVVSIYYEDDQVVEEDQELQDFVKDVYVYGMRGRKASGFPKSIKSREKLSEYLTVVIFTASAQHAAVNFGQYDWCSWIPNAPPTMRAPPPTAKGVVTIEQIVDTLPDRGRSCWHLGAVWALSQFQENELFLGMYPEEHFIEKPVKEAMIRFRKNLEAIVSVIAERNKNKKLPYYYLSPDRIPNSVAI
Outline: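 Cell-free enzyme from the 15,000 g supernatant of nitrogen-cavitated RBL 2H3 cells, preincubated 5 min with compound at 10 µM final (1.5% DMSO) in Hepes pH 7. Reaction started with CaCl2, ATP, PAF and arachidonic acid and run 8 min at room temperature; product quantified by EIA.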

SR Ca^2+-ATPase = target: T2, SR Ca^2+-ATPase (Canis lupus familiaris, UniProt O46674); experiment: Sarcoplasmic reticulum Ca^2+-ATPase assay; assay type: biochemical, dog; conditions: for SR Ca^2+-ATPase Activity: 0 µM = 100, dog cardiac SR; for IC50: read-out: SR Ca^2+-ATPase IC50 = conc. for 50% inhibition
T2 construct: Effect of gingerols and their derivatives on the Ca^2+-ATPase activity of dog cardiac SR; from tissue; host or cells: dog heart (cardiac sarcoplasmic reticulum)
T2 sequence (O46674 whole entry): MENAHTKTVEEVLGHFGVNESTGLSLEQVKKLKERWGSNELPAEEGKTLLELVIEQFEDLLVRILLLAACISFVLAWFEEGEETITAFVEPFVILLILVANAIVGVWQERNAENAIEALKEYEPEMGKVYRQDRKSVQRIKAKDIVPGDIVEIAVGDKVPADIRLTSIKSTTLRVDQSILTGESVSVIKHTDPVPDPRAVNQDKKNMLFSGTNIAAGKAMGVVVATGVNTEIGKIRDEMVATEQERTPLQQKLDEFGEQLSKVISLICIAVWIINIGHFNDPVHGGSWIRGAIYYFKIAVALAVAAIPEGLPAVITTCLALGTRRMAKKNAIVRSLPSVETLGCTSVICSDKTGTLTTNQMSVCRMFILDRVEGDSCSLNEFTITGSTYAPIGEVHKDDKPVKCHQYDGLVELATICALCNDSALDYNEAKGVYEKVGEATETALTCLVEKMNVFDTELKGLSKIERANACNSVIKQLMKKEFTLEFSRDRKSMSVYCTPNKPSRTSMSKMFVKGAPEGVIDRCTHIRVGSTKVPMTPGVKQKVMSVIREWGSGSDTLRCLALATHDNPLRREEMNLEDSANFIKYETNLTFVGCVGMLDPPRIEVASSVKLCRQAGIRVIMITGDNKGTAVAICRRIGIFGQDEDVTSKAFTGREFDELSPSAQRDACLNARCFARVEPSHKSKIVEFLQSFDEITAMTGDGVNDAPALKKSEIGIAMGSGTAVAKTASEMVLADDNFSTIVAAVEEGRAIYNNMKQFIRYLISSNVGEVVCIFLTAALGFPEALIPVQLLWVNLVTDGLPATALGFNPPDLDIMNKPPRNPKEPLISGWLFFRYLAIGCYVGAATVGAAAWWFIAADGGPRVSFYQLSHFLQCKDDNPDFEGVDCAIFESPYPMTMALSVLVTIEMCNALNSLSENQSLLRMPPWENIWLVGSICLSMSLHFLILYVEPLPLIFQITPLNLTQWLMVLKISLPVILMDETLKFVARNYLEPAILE
Protocol: A portion at each concentration (54 µl) was aliquoted into 4 designated wells of the microplate (two of four wells were controls). Each well was mixed with ATP solution (20 mM, 6 µl), except the controls, using an 8 channel pipette. The controls were assayed in the absence of ATP or calcium.
The plate was incubated with the lid on, for 30 min at 37°C, colour reagent (160 µl) was then added and mixed with citrate solution (34%, 30 µl). The plate was developed at room temperature for 30 min then absorbance at 655 nm was read from the microplate reader. The Ca^2+-ATPase activity was quantitated, from a Pi standard curve, as concentration of liberated inorganic phosphate.
Stock solutions (10 mM) of test substance were prepared in DMSO, then series dilutions were made either in DMSO or in 1M HEPES to produce the dose-response concentrations. The maximum concentration of DMSO in the final assay solution was 2.5%.
Each concentration of test substance was assayed in duplicate in the presence and absence of ATP or calcium. Phosphate standards are run on each plate as follows:
Effect of gingerols and their derivatives on the Ca^2+-ATPase activity of dog cardiac SR.

guinea pig atria = experiment: Organ bath assay on isolated guinea pig atria (rate and force of contraction); conditions: for HEART RATE / FORCE OF CONTRACT^n: result in words
Outline: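 Test substances (DMSO, final 2.5 %) applied up to a maximum of 50 µM. Preparation: isolated atria of young (3-4 wk) male guinea pigs under 1 g resting tension in carbogen-oxygenated Krebs-Henseleit, baseline stable 20 min. Read-outs: beating rate and contractile force.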

Cyclo-oxygenase (COX) = experiment: Cyclo-oxygenase assay in RBL 2H3 cells (PGD2 EIA); assay type: cell-based, rat; conditions: final concentration of 10 µM
Protocol: Cyclo-oxygenase (COX) assay was performed with cells in culture prepared from rat basophilic leukemia (RBL) 2H3 cell lines. Cells were cultured in EMEM containing 10% fetal calf serum and antibiotic until cells reached confluence. Harvested cells were subsequently seeded on 24-well plates at 1 x 10^6 cells/ml then incubated at 37°C for 3 hours. Cells were washed twice with incubation buffer (1.5 ml) containing 5 mM Hepes, 140 mM NaCl, 5 mM KCl, 0.6 mM MgCl2, 1 mM CaCl2 and […]. Cells were then covered with 0.49 ml of buffer, followed by addition of samples/solvents (0.005 ml) and incubated at 37 °C for 5 min on an orbital shaker. Arachidonic acid (0.005 ml, containing 50% EtOH) was subsequently added, and the plate was incubated at similar conditions for a further 10 min. The supernatant (0.1 ml) was aliquoted for methoxime derivatisation of PGD2, which was carried out by heating the supernatant with methoxime solution (1:1) at 60 °C for 30 min according to the instructions provided with the kit. The resultant solution was diluted with EIA buffer and stored on ice for EIA, following the protocol provided with the kit.
Validation of COX enzyme activity was carried out using EIA in which the enzyme activity was characterised against various concentrations of AA and a time course of enzyme activity.
[…] Indomethacin was used as reference compound. The concentration of DMSO in the assay was maintained at 1.5%.

| activity at 10 µM (Lipoxygenase (LP)) [%] | IC50 (SR Ca^2+-ATPase) [µM] | SR Ca^2+-ATPase ↑ increase or stimulation (SR Ca^2+-ATPase; @ 50 µM) | Structure (SMILES) | SR Ca^2+-ATPase Activity (SR Ca^2+-ATPase; 5 µM) | SR Ca^2+-ATPase Activity (SR Ca^2+-ATPase; 10 µM) | SR Ca^2+-ATPase Activity (SR Ca^2+-ATPase; 25 µM) | SR Ca^2+-ATPase Activity (SR Ca^2+-ATPase; 50 µM) | Cyclooxygenase activity % activity (Cyclo-oxygenase (COX)) [%] | HEART RATE (guinea pig atria; guinea pig atria) | SR Ca^2+-ATPase Activity (SR Ca^2+-ATPase; 1 µM) | FORCE OF CONTRACT^n (guinea pig atria; guinea pig atria) | other results |
| --- | --- | --- | --- | --- | --- | --- | --- | --- | --- | --- | --- | --- |
| 35 | ~25 |  | CCCCCCCC(O)CCCCc1ccc(O)c(OC)c1 (stereo not shown) [1-(4-hydroxy-3-methoxyphenyl)dodecan-5-ol] | 113 | 136 | 158 | 126 | 12 | ↑weakly |  |  | SR Ca^2+-ATPase Activity (SR Ca^2+-ATPase; 100 µM): 87; SR Ca^2+-ATPase Activity (SR Ca^2+-ATPase; 200 µM): 18; SR Ca^2+-ATPase ↑ increase or stimulation (SR Ca^2+-ATPase; @ 25 µM): ↑57% @ 25; FORCE OF CONTRACT^n ↑ increase (guinea pig atria; @ 30 (µM), guinea pig atria): ↑79% @ 30 |
| 175 | ~50 |  | CCCCCCCC(O)CC(=O)c1ccc(O)c(OC)c1 (stereo not shown) [3-hydroxy-1-(4-hydroxy-3-methoxyphenyl)decan-1-one] | 152 | 174 | 195 | 180 | 123 | negative chronotropic activity | 104 | negative inotropic activity | SR Ca^2+-ATPase Activity (SR Ca^2+-ATPase; 100 µM): 222; SR Ca^2+-ATPase ↑ increase or stimulation (SR Ca^2+-ATPase; @ 25 µM, listed as 3-hydroxy-1-(4-hydroxy-3-methoxyphenyl) decan-1-one (3.92)): ↑95% @ 25; SR Ca^2+-ATPase ↑ increase or stimulation (SR Ca^2+-ATPase; @ 25 µM, listed as 3.92): 95%; stimulatory activity towards dog heart SR Ca^2+-ATPase (SR Ca^2+-ATPase; at 3 µM): 200%; FORCE OF CONTRACT^n ↓ decrease (guinea pig atria; @ 10 (µM), guinea pig atria): ↓11% @ 10; HEART RATE ↓ decrease (guinea pig atria; @ 10 (µM), guinea pig atria): ↓5% @ 10; FORCE OF CONTRACT^n ↓ decrease (guinea pig atria; @ 30 (µM), guinea pig atria): ↓13% @ 30; increase on driven guinea pig left atria (guinea pig atria; at 10 µM): 50% |
| 107 |  |  | CCCCCCCC(O)CC(=O)CCc1ccc2c(c1)OCO2 (stereo not shown) [5-hydroxy-1-(3,4-methylenedioxyphenyl)dodecan-3-one] |  |  |  |  | 59 |  |  |  |  |
| 450 | > 100 | ↑60% @ 50 | CCCCCCCC(O)CC(=O)CCc1ccc(O)cc1 (stereo not shown) [[8]-demethoxygingerol, 5-hydroxy-1-(4-hydroxyphenyl)dodecan-3-one] |  |  |  |  | 63 | inactive |  | inactive |  |
| 26 | > 100 | ↑54% @ 50 | CCCCCCCC(O)CC(O)CCc1ccc(O)c(OC)c1 (stereo not shown) [[8]-gingerdiol, 1-(4-hydroxy-3-methoxyphenyl)dodecane-3,5-diol, reference compound] |  |  |  |  | 10 | inactive |  | inactive |  |
| 65.5 | ~100 |  | CCCCCCCC(O)CC(=O)CCc1ccc(O)c(OC)c1 (stereo not shown) [[8]-gingerol, 5-hydroxy-1-(4-hydroxy-3-methoxyphenyl)dodecan-3-one, reference compound] | 158 | 165 | 200 | 139 | 16 |  | 139 |  | SR Ca^2+-ATPase ↑ increase or stimulation (SR Ca^2+-ATPase; @ 25 µM): ↑100% @ 25; FORCE OF CONTRACT^n ↑ increase (guinea pig atria; @ 3 (µM), guinea pig atria): ↑160% @ 3; HEART RATE ↑ increase (guinea pig atria; @ 3 (µM), guinea pig atria): ↑31% @ 3; time to increased cardiac contractility after addition of the drug (guinea pig atria; guinea pig atria): 15 s |
| 8 | > 100 | ↑64% @ 50 | CCCCCCCC(O)CC(=O)CCc1ccc(OC)c(O)c1 (stereo not shown) [[8]-isogingerol, 5-hydroxy-1-(3-hydroxy-4-methoxyphenyl)dodecan-3-one, reference compound] |  |  |  |  | 23 | inactive |  | inactive |  |
| 118 | > 100 |  | CCCCCCCC(O)CC(=O)CCc1cccc(OC)c1O (stereo not shown) [[8]-orthogingerol, 5-hydroxy-1-(2-hydroxy-3-methoxyphenyl)dodecan-3-one] |  |  |  |  | 17 | inactive |  | inactive | SR Ca^2+-ATPase ↑ increase or stimulation (SR Ca^2+-ATPase; @ 100 µM): ↑40% @ 100 |

| Structure (SMILES) | activity at 10 µM (Lipoxygenase (LP)) [%] | IC50 (SR Ca^2+-ATPase) [µM] | SR Ca^2+-ATPase ↑ increase or stimulation (SR Ca^2+-ATPase; @ 50 µM) | SR Ca^2+-ATPase Activity (SR Ca^2+-ATPase; 5 µM) | SR Ca^2+-ATPase Activity (SR Ca^2+-ATPase; 10 µM) | SR Ca^2+-ATPase Activity (SR Ca^2+-ATPase; 25 µM) | SR Ca^2+-ATPase Activity (SR Ca^2+-ATPase; 50 µM) | Cyclooxygenase activity % activity (Cyclo-oxygenase (COX)) [%] | HEART RATE (guinea pig atria; guinea pig atria) | SR Ca^2+-ATPase Activity (SR Ca^2+-ATPase; 1 µM) | FORCE OF CONTRACT^n (guinea pig atria; guinea pig atria) | other results |
| --- | --- | --- | --- | --- | --- | --- | --- | --- | --- | --- | --- | --- |
| CCCCCCCCCC(O)CCc1ccc(O)c(OC)c1 (stereo not shown) [1-(4-hydroxy-3-methoxyphenyl)dodecan-3-ol] | 31 | 50 to 100 |  | 102 | 108 | 140 | 101 | 9 |  |  |  | SR Ca^2+-ATPase Activity (SR Ca^2+-ATPase; 100 µM): 98; SR Ca^2+-ATPase Activity (SR Ca^2+-ATPase; 200 µM): 16; SR Ca^2+-ATPase ↑ increase or stimulation (SR Ca^2+-ATPase; @ 25 µM): ↑40% @ 25; FORCE OF CONTRACT^n ↑ increase (guinea pig atria; @ 10 (µM), guinea pig atria): ↑180% @ 10; HEART RATE ↑ increase (guinea pig atria; @ 10 (µM), guinea pig atria): ↑50% @ 10; increase on driven guinea pig left atria (guinea pig atria; at 1 µM, followed by arrhythmia): 50%; potency of one enantiomer versus the other in increasing the force of contraction (guinea pig atria; guinea pig atria): 100 fold; arrhythmia (guinea pig atria; guinea pig atria, after addition of a dose): followed by arrhythmia |
| CCCCCCCC(=O)CC(O)CCc1ccc(O)c(OC)c1 (stereo not shown) [3-hydroxy-1-(4-hydroxy-3-methoxyphenyl)dodecan-5-one] | 193 | > 100 |  |  |  |  |  | 18 |  |  |  | FORCE OF CONTRACT^n ↑ increase (guinea pig atria; @ 5 (µM), guinea pig atria): ↑270% @ 5; FORCE OF CONTRACT^n ↑ increase (guinea pig atria; @ 10 (µM), guinea pig atria): ↑130% @ 10; HEART RATE ↑ increase (guinea pig atria; @ 10 (µM), guinea pig atria): ↑30% @ 10 |
| CCCCCC(O)CC(=O)CCc1ccc(O)c(OC)c1 (stereo not shown) [[6]-gingerol, 5-hydroxy-1-(4-hydroxy-3-methoxyphenyl)decan-3-one, reference compound] | 202 | > 100 | ↑60% @ 50 | 120 | 117 | 137 | 160 | 55 |  | 121 |  | FORCE OF CONTRACT^n ↑ increase (guinea pig atria; @ 50 (µM), guinea pig atria): ↑86% @ 50; HEART RATE ↑ increase (guinea pig atria; @ 50 (µM), guinea pig atria): ↑10% @ 50 |
| CCCCCCCC(O)CC(=O)C=Cc1ccc(O)c(OC)c1 (stereo not shown) [[8]-dehydrogingerol, 5-hydroxy-1-(4-hydroxy-3-methoxyphenyl)dodecan-1-ene-3-one, reference compound] | 37 | ~50 |  | 88 | 92 | 95 | 65 | 19 |  | 93 |  | inhibition at 50 µM (SR Ca^2+-ATPase; @ 50 µM, read-out: SR Ca^2+-ATPase ↓ decrease or inhibition): 35%; FORCE OF CONTRACT^n ↑ increase (guinea pig atria; @ 25 (µM), guinea pig atria): ↑80% @ 25; HEART RATE ↑ increase (guinea pig atria; @ 25 (µM), guinea pig atria): ↑17% @ 25; time for tension to reach maximum after addition of a dose (guinea pig atria; guinea pig atria): a few mins |
